Patent US20100092526A1, “NANOEMULSION THERAPEUTIC COMPOSITIONS AND METHODS OF USING THE SAME” (NanoBio Corporation, priority 2008, published 2010)
Values after ≈ are worked out from the molar mass of the structure shown. Values joined by “and” are separate entries in the source; they are usually repeats but may differ in a detail not shown here. Equal values may be shown once.

Test system: methicillin-resistant Staphylococcus aureus (MRSA)
Assay: Susceptibility (MIC/MBC) of MRSA clinical isolates
Assay type: cell-based
Settings: for MBC50(15) / MIC50(15) / MBC90(26) / MIC90(26): 29 MRSA clinical isolates; for MBC50(15) / MIC50(15): rank 15; for MBC90(26) / MIC90(26): rank 26; for MBC / MIC: individual MRSA clinical isolates, values listed by rank order 1-29

Row | MIC50(15) [µg/mL] | SMILES | MBC50(15) [µg/mL] | MBC90(26) [µg/mL] | MIC90(26) [µg/mL] | MBC | MIC
1 | >64 | CCC[C@@H]1C[C@@H](C(=O)N[C@@H]([C@H]2O[C@H](SC)[C@H](O)[C@@H](O)[C@H]2O)[C@H](C)Cl)N(C)C1 [Clind] | >64 | >64 | >64 | >64 μg/ml (17×) and >2 μg/ml (10×) and 2 μg/ml and 1 μg/ml | >64 μg/ml (17×) and 0.125 μg/ml (12×)
2 | 0.25 (≈ 0.563 µM) | C[C@H]1c2cccc(O)c2C(=O)C2=C(O)[C@]3(O)C(=O)C(C(N)=O)=C(O)[C@@H](N(C)C)[C@@H]3[C@@H](O)[C@@H]21 [Dox] | >4 | >64 | 4 (≈ 9 µM) | >128 μg/ml and >64 μg/ml (4×) and >4 μg/ml (21×) and 2 μg/ml and 1 μg/ml (2×) | 4 μg/ml (4×) and 0.25 μg/ml (25×)
3 | 64 (≈ 87.2 µM) | CC[C@H]1OC(=O)[C@H](C)[C@@H](O[C@H]2C[C@@](C)(OC)[C@@H](O)[C@H](C)O2)[C@H](C)[C@@H](O[C@@H]2O[C@H](C)C[C@H](N(C)C)[C@H]2O)[C@](C)(O)C[C@@H](C)C(=O)[C@H](C)[C@@H](O)[C@]1(C)O [Eryth] |  |  |  | 64 μg/ml and >4 μg/ml (4×) | 64 μg/ml (6×) and 32 μg/ml (3×) and 16 μg/ml and 8 μg/ml and 0.25 μg/ml (4×)
4 |  | CC(=O)O.NCc1ccc(S(N)(=O)=O)cc1 [Maf. Acet.] | >128 | >128 |  | >128 µg/mL | 

Row | SMILES | MIC50(15) [µg/mL] | MBC50(15) [µg/mL] | MBC90(26) [µg/mL] | MIC90(26) [µg/mL] | MBC | MIC
5 | C[C@H]1COc2c(N3CCN(C)CC3)c(F)cc3c(=O)c(C(=O)O)cn1c23 [Levo] | 8 (≈ 22.1 µM) | 16 (≈ 44.3 µM) | >64 | 32 (≈ 88.6 µM) | >64 μg/ml (6×) and 64 μg/ml (2×) and >32 μg/ml and 32 μg/ml (5×) and 16 μg/ml (3×) and 8 μg/ml (4×) and 4 μg/ml and 1 μg/ml and 0.5 μg/ml and 0.25 μg/ml (5×) | >64 μg/ml (2×) and 32 μg/ml (5×) and 16 μg/ml (4×) and 8 μg/ml (5×) and 4 μg/ml (5×) and 2 μg/ml and 0.5 μg/ml and 0.25 μg/ml (3×) and 0.125 μg/ml (3×)
6 | CC(=O)O.NCc1ccc(S(N)(=O)=O)cc1 [Maf. Acet] | >128 |  |  | >128 |  | >128 μg/ml (28×) and 128 μg/ml
